The text below walks through data of the OPERA property sets (Mansouri et al. 2018).

Values after ≈ are worked out from the molar mass of the structure shown.

The logP is the decadic logarithm of the partition coefficient of the neutral form, usually between octanol and water. A lower logP goes with a more hydrophilic compound. A word on the solubility: it is the concentration that dissolves in the medium under given conditions. A low value points to a poorly soluble substance. As to `CCOC1Oc2ccc(OS(C)(=O)=O)cc2C1(C)C` (configuration not stated), the logP worked out at 2.7. Where the note is “25 °C”, this molecule gave a solubility of 0.259 mM (≈ 74.1 µg/mL).

In turn, `CCCC(=O)N(CSP(=S)(OC)OC)c1ccccc1Cl` returned a logP of 0.56.

Molecule `C/C=C(\C)C(=O)O[C@H]1C[C@@H](OC(C)=O)[C@@]2(C(=O)OC)CO[C@H]3[C@@H](O)[C@@](C)([C@]45O[C@@]4(C)[C@H]4C[C@@H]5O[C@@H]5OC=C[C@@]54O)[C@H]4[C@]1(CO[C@]4(O)C(=O)OC)[C@@H]32` returned a solubility of 0.361 mM (≈ 260 µg/mL).

The molecule `CCCCOC(=O)[C@@H](C)Oc1ccc(Oc2ccc(C#N)cc2F)cc1` returned a logP of 3.31.

Take `CCOP(=O)(OCC)SCCSCC`: under “20 °C”, the solubility was determined as 7.74 mM (≈ 2000 µg/mL).

For the molecule `O=[N+]([O-])c1cc(C(F)(F)F)c(Cl)c([N+](=O)[O-])c1Nc1ncc(C(F)(F)F)cc1Cl`, the logP came out at 4.01.

`CCC(C)(CC)c1cc(NC(=O)c2c(OC)cccc2OC)on1`: the logP was determined as 3.94.

Regarding `C[n+]1ccc(-c2cc[n+](C)cc2)cc1`, the solubility (20 °C) was found to be 2410 mM.

As to `Fc1ccc(Oc2ccnc3cc(Cl)cc(Cl)c23)cc1`, the logP was 4.66. For the setting “20 °C”, this molecule came in with a solubility of 0.000376 mM (≈ 0.116 µg/mL).

Take `N#CN`: the logP was -0.82. For the same molecule, the solubility (20 °C) worked out at 11900 mM (≈ 500000 µg/mL).

Turning to `N#CCON=C(C#N)c1ccccc1`, where the note is “20 °C”, the solubility was determined as 0.513 mM (≈ 95 µg/mL).

Turning to `CCOC(=O)COc1cc(-c2nn(C)c(OC(F)F)c2Cl)c(F)cc1Cl`, the lipophilicity (logP) was found to be 3.49.

Molecule `CC1=C(C(=O)Nc2ccccc2)SCCO1` displayed a solubility (20 °C) of 0.672 mM (≈ 158 µg/mL).

With `COC(=O)c1ccccc1S(=O)(=O)NC(=O)N(C)c1nc(C)nc(OC)n1`, under “pH 5.0, 25 °C”, the solubility stood at 0.126 mM (≈ 50 µg/mL).

In turn, `COC(=O)N(C(=O)N1CO[C@@]2(C(=O)OC)Cc3cc(Cl)ccc3C2=N1)c1ccc(OC(F)(F)F)cc1` returned a logP of 4.65.

`CCC(C)(NC(=O)c1cc(Cl)c(C)c(Cl)c1)C(=O)CCl` (configuration not stated) came in with a logP of 3.76.

`CCCC1COC(Cn2cncn2)(c2ccc(Cl)cc2Cl)O1` (configuration not stated): the logP was 3.72. Besides, for the setting “20 °C”, the solubility came out at 0.321 mM (≈ 110 µg/mL).

Turning to `CC(C)=CC1C(C(=O)OCc2cccc(Oc3ccccc3)c2)C1(C)C` (configuration not stated), the logP came to 6.01. Besides, the solubility (25 °C) was < 2.77e-05 mM.

Take `CN/C(=N\[N+](=O)[O-])NCc1cnc(Cl)s1`: the logP is 0.7.

`Cc1ccc2nc3sc(=O)sc3nc2c1` showed a log partition coefficient (logP) of 3.78. For the setting “20 °C”, this molecule gave a solubility of 0.00427 mM (≈ 1 µg/mL).

Turning to `CC(C)N1C(=O)N(c2ccccc2)CSC1=NC(C)(C)C`, the logP worked out at 4.3. The same molecule had a solubility (20 °C) of 0.00295 mM (≈ 0.9 µg/mL).

On to `C[n+]1ccc(-c2cc[n+](C)cc2)cc1.[Cl-].[Cl-]`, for which the lipophilicity (logP) was -4.5. The solubility (20 °C) stood at 2720 mM.

The molecule `Nc1c(Cl)c(F)nc(OCC(=O)O)c1Cl` returned a solubility (pH 9.2, 20 °C) of 0.357 mM (≈ 91 µg/mL).

For `Nc1c(Cl)c(Cl)nc(C(=O)O)c1Cl`, the logP is 1.9.

In general, logD refers to lipophilicity at a set pH, counting ionised and neutral species. Take `O=C(Nc1ccccc1)Nc1cnns1`: the logD (pH 7.3) stood at 1.77.

Consider `Nc1nc[nH]n1`, for which the logP is -0.97.

Molecule `CON=C(C(=O)OC)c1ccccc1CON=C(C)c1cccc(C(F)(F)F)c1` displayed a log partition coefficient (logP) of 4.5.

Consider `CC(Oc1cccc(Cl)c1)C(=O)O` (configuration not stated), for which the solubility (22 °C) came out at 5.98 mM (≈ 1200 µg/mL).

On to `CCN(Cc1ccc(Cl)nc1)/C(=C/[N+](=O)[O-])NC`, for which the logP was -0.66.

`CCCCCCCC(=O)Oc1c(Br)cc(C#N)cc1Br` registered a logP of 5.4.

Molecule `O=[N+]([O-])/N=C1\NCCN1Cc1ccc(Cl)nc1` showed a logP of 0.57.

Under “20 °C”, `C[C@@H]1[C@@H](c2ccc(Cl)cc2)SC(=O)N1C(=O)NC1CCCCC1` (single isomer, unassigned) gave a solubility of 0.00142 mM (≈ 0.5 µg/mL).

Turning to `COC(=O)c1ccccc1S(=O)(=O)NC(=O)Nc1nc(C)cc(C)n1`, under “pH 7.0, 25 °C”, the solubility is 0.743 mM (≈ 271 µg/mL).

In the case of `CN(C)C(=S)SSC(=S)N(C)C`, the logP was 1.73.

As to `CN1CSC(=S)N(C)C1`, the logP stood at 0.63. The same molecule yielded a solubility (20 °C) of 18.5 mM (≈ 3000 µg/mL).

As to `COC(=O)N(OC)c1ccccc1COc1ccn(-c2ccc(Cl)cc2)n1`, the lipophilicity (logP) was 3.99.

On to `CC(C)=CC1C(C(=O)OCc2coc(Cc3ccccc3)c2)C1(C)C` (configuration not stated), for which the solubility (25 °C) amounted to 0.000315 mM (≈ 0.107 µg/mL).

For `CC1(C(=O)Nc2ccc(O)c(Cl)c2Cl)CCCCC1`, the logP was determined as 3.51.

In turn, `COC(=O)c1ccccc1CS(=O)(=O)NC(=O)Nc1nc(OC)cc(OC)n1` yielded a logP of 2.18.

In the case of `CCCCC(CC)COC(=O)COc1ccc(Cl)cc1Cl` (configuration not stated), the logP was determined as 5.78.

The molecule `CCCCNC1(P(=O)(OCCCC)OCCCC)CCCCC1` yielded a solubility (20 °C) of 0.489 mM (≈ 170 µg/mL).

`CCN(CC)c1c([N+](=O)[O-])cc(C(F)(F)F)c(N)c1[N+](=O)[O-]` showed a logP of 4.3.

With `CCSC(=O)N(CC)C1CCCCC1`, the logP was 3.88.

Regarding `N#Cc1c(Cl)c(Cl)c(Cl)c(C#N)c1Cl`, the solubility (25 °C) came to 0.00226 mM (≈ 0.6 µg/mL).

Consider `CCCN(CC1CC1)c1c([N+](=O)[O-])cc(C(F)(F)F)cc1[N+](=O)[O-]`, for which, where the note is “20 °C”, the solubility worked out at 0.000288 mM (≈ 0.1 µg/mL).

For the setting “25 °C”, `C#CCOS(=O)OC1CCCCC1Oc1ccc(C(C)(C)C)cc1` (configuration not stated) gave a solubility of 0.00143 mM (≈ 0.5 µg/mL).

For the molecule `CC(C)N(C(=O)CCl)c1ccccc1`, the solubility (25 °C) came to 3.31 mM (≈ 700 µg/mL).

On to `CC1OC(C)OC(C)OC(C)O1` (configuration not stated), for which the logP was determined as 0.12.

`CC1=C(C(=O)Nc2ccccc2)S(=O)(=O)CCO1`: the log partition coefficient (logP) came out at 0.77. Besides, where the note is “25 °C”, the solubility came to 4.43 mM (≈ 1180 µg/mL).

Molecule `O=C(Nc1ccccc1-c1ccc(Cl)cc1)c1cccnc1Cl` gave a logP of 2.96.

As to `C=CCOC(Cn1ccnc1)c1ccc(Cl)cc1Cl` (configuration not stated), the logP amounted to 3.82. The molecule further yielded a solubility (pH 7.6, 20 °C) of 0.606 mM (≈ 180 µg/mL).

For the setting “20 °C”, `CSc1nnc(C(C)(C)C)c(=O)n1/N=C/C(C)C` came in with a solubility of 0.0373 mM (≈ 10 µg/mL).

Take `Clc1ccc(C2(Cn3cncn3)CC(Br)CO2)c(Cl)c1` (configuration not stated): the lipophilicity (logP) is 3.24. For the setting “25 °C”, the solubility is 0.133 mM (≈ 50 µg/mL).

Consider `CCC(CC)Nc1c([N+](=O)[O-])cc(C)c(C)c1[N+](=O)[O-]`, for which the log partition coefficient (logP) was found to be 5.2. This molecule showed a solubility (20 °C) of 0.00107 mM (≈ 0.3 µg/mL).
